In US11096931B2, “Amide derivatives useful in the treatment of HBV infection or HBV-induced diseases” (Janssen Sciences Ireland Unlimited Company, priority 2019, dated 2021):
pEC50: −log10 of the molar value. In brackets after ≈: the same amount, converted by molar mass. Several values for one entry are separate records, joined by “and”; a condition that tells them apart may be missing. Identical values can stand only once. Like-named read-outs stand apart in the source and are kept apart here.

Assays:
[1] = Pharmacokinetics assessment in mice; type: in vivo, C57BL mice; details: mouse; for clearance / AUC(0-t) / Cmax: male, C57BL, plasma; for clearance: IV (PEG400) 2.5 mg/kg
Description: The pharmacokinetic profile was evaluated in fed male C57BL mice (n=3/group). Mice were i.v. injected with test compound at 2.5 mg/kg, formulated as solution in PEG400/water (70/30), and blood samples were collected from the dorsal metatarsal vein at 0.05, 0.117, 0.333, 1, 2, 4, 7, and 24 hours into EDTA-containing microcentrifuge tubes. Test compound was administered p.o. at 10 mg/kg and 50 mg/kg, formulated as solution in PEG400, and blood samples were collected from the dorsal metatarsal vein at 0.5, 1, 2, 4, 7, 12 and 24 hours into EDTA-containing microcentrifuge tubes. The blood samples were immediately centrifuged at 4° C. and the plasma was stored at −80° C. Compound concentrations from the plasma samples were analyzed using LC-MS/MS (LCMS-8050 instrument). Individual plasma concentration-time profiles were subjected to a non-compartmental pharmacokinetic analysis (NCA) using Phoenix™ WinNonlin version 6.1. (Certara, N.J., USA).

HT EQ solubility assay = type: physicochemical; details: read-out: HtEq Sol; for solubility thermodynamic at 24 h: stirred 24 h
Description: The assay was run in triplicate and was semi-automated using the Tecan Fluent for all liquid handling. 20 μL of 10 mM stock solution was dispensed in a 500 μL 96 well plate. DMSO was evaporated (Genevac). A stir bar and 400 μL of buffer/biorelevant media was added. The solution was stirred for 72 h (pH2 and pH7) or 24 h (FaSSIF and FeSSIF). The solution was filtered and the filtrate was quantified by UPLC/UV using a three-points calibration curve.

[2] = Cytotoxicity, ATPlite cell viability; type: cell-based; details: human, mean value, HepG2 or HepG2.117 cells
Description: Cytotoxicity of the compounds was tested using HepG2 or HepG2.117 cells, incubated for 4 days in the presence of compounds. The viability of the cells was assessed using the Perkin Elmer ATPlite Luminescence Assay System.”

[3] = Thermodynamic solubility assay; type: physicochemical; details: organic solvent or mixture, thermodynamic from solid; thermodynamic solubility in PEG400
Description: To x mg of compound 500 μL of solvent was added (max. conc. y mg/mL). After 24 h/72 h shaking/stirring the solutions were filtered (0.45 μm membrane) and the pH was recorded. The filtrate was diluted to a maximum conc. of 100 μg/mL (CH3CN/0.1N HCl 1/1) and the samples were quantified by LC/UV. Calibration standards were 100 μg/mL, 10 μg/mL and 1 μg/mL.

HBV = experiment: anti HBV activity, HepG2.117 cell line, intracellular HBV DNA by real-time PCR; type: cell-based, hepatitis B virus; details: Hepatitis B virus, 72 h; mean value; HepG2.117 cells, 3 days of treatment, intracellular HBV DNA; read-out: HBV-AVE-HepG2.117_intra_EC50
Description: The anti HBV activity was measured using the HepG2.117 cell line, a stable, inducible HBV producing cell line, which replicates HBV in the absence of doxicycline (Tet-off system). The HepG2 cell line is available from ATCC® under number HB-8065. Transfection of the HepG2 cell line can be as described in Sun and Nassal 2006 Journal of Hepatology 45 (2006) 636-645 “Stable HepG2-and Huh7-based human hepatoma cell lines for efficient regulated expression of infectious hepatitis B virus”.
For the antiviral assay, HBV replication was induced, followed by a treatment with serially diluted compound in 96-well plates. After 3 days of treatment, the antiviral activity was determined by quantification of intracellular HBV DNA using real-time PCR and an HBV specific primer set and probe.

[4] = buffer pH 2, aqueous buffer, thermodynamic from solid, pH = 2, stirred 72 h
[5] = buffer pH 7, aqueous buffer, thermodynamic from solid, pH = 7, stirred 72 h
[6] = thermodynamic from solid, Fessif
[7] = thermodynamic from solid, fassif

Cc1c(C(=O)C(=O)NC2(c3c[nH]nn3)CC(F)(F)C2)c(C)n(C)c1C(=O)Nc1ccc(F)c(C#N)c1 [Compound 28]
clearance [1]: 73.3 mL/min/kg
AUC(0-t) ([1]; PO (PEG400) 10 mg/kg): 153 ng·h/mL
Cmax ([1]; PO (PEG400) 10 mg/kg): 85 ng/mL
AUC(0-t) ([1]; PO (PEG400) 50 mg/kg): 1850 ng·h/mL
Cmax ([1]; PO (PEG400) 50 mg/kg): 1630 ng/mL
F ([1]; PO (PEG400) 10 mg/kg): 6.05 +/− 3.56%
F ([1]; PO (PEG400) 50 mg/kg): 14.6 +/− 12^ %
solubility thermodynamic at 72 h (HT EQ solubility assay; [4]): < 5 µM
solubility thermodynamic at 72 h (HT EQ solubility assay; [5]): < 5 µM
solubility thermodynamic at 24 h (HT EQ solubility assay; [6]): 277 µM (≈ 138 µg/mL)
solubility thermodynamic at 24 h (HT EQ solubility assay; [7]): 46.8 µM (≈ 23.4 µg/mL)
CC50 at 4 days [2]: > 50000 nM
solubility [3]: > 33.9 mg/mL
pEC50 (HBV): 8.10

Cc1c(C(=O)C(=O)NC2(c3cn[nH]n3)CC(F)(F)C2)cn(C)c1C(=O)Nc1ccc(F)c(C#N)c1 [Compound 12]
solubility thermodynamic at 24 h (HT EQ solubility assay; Fessif): 41.2 µM and 25.1 µM
solubility thermodynamic at 24 h (HT EQ solubility assay; fassif): 10.2 µM and 5.4 µM
CC50 at 4 days [2]: > 50000 nM
pEC50 (HBV): 8.00

Cn1cc(C(=O)C(=O)NC2(c3cn[nH]n3)CC(F)(F)C2)c(Cl)c1C(=O)Nc1ccc(F)c(Cl)c1 [Compound 3]
CC50 at 4 days [2]: 22000 nM
pEC50 (HBV): 8.22

Cn1cc(C(=O)C(=O)NC2(c3cn[nH]n3)COC2)cc1C(=O)Nc1ccc(F)c(C#N)c1 [Compound 17]
CC50 at 4 days [2]: > 50000 nM
pEC50 (HBV): 6.77

Cc1c(C(=O)C(=O)N[C@]2(c3cn[nH]n3)C[C@H](F)C2)cn(C)c1C(=O)Nc1ccc(F)c(C#N)c1 [Compound 57cis]
CC50 at 4 days [2]: > 50000 nM
pEC50 (HBV): 7.92

Cn1cc(C(=O)C(=O)NC2(c3cn[nH]n3)CC(F)(F)C2)c(Br)c1C(=O)Nc1ccc(F)c(C#N)c1 [Compound 31]
CC50 at 4 days [2]: > 50000 nM
pEC50 (HBV): 8.52

Cn1cc(C(=O)C(=O)NC2(c3cn[nH]n3)CC(F)(F)C2)c(F)c1C(=O)Nc1ccc(F)c(C#N)c1 [Compound 5]
CC50 at 4 days [2]: 11900 nM
pEC50 (HBV): 8.00

Cc1c(C(=O)C(=O)NC(CC(F)(F)F)c2cn[nH]n2)c(C)n(C)c1C(=O)Nc1ccc(F)c(C#N)c1 (stereo not shown) [Compound 44RS]
CC50 at 4 days [2]: > 50000 nM
pEC50 (HBV): 8.40

Cn1cc(C(=O)C(=O)N[C@]2(c3cn[nH]n3)CCC(F)(F)C2)cc1C(=O)Nc1ccc(F)c(C#N)c1 (single isomer, unassigned) [18*R]
CC50 at 4 days [2]: 14100 nM
pEC50 (HBV): 7.82

Cc1c(C(=O)C(=O)NC2(c3cn[nH]n3)CC(F)(F)C2)c(Br)n(C)c1C(=O)Nc1ccc(F)c(Cl)c1 [Compound 41]
CC50 at 4 days [2]: 7200 nM
pEC50 (HBV): 8.70

Cc1c(C(=O)C(=O)NC2(c3cn[nH]n3)CC(F)(F)C2)cn(C)c1C(=O)Nc1ccc(F)c(Cl)c1 [Compound 13]
clearance [1]: 10.2 mL/min/kg
AUC(0-t) ([1]; PO (PEG400) 10 mg/kg): 12500 ng·h/mL
Cmax ([1]; PO (PEG400) 10 mg/kg): 2480 ng/mL
F ([1]; PO (PEG400) 10 mg/kg): 77.3 +/− 19.8%
F ([1]; PO (PEG400) 50 mg/kg): 121 +/− 50%
solubility thermodynamic at 72 h (HT EQ solubility assay; [4]): 1.1 µM (≈ 0.544 µg/mL)
solubility thermodynamic at 72 h (HT EQ solubility assay; [5]): < 0.6 µM
solubility thermodynamic at 24 h (HT EQ solubility assay; [6]): 150 µM (≈ 74.5 µg/mL)
solubility thermodynamic at 24 h (HT EQ solubility assay; [7]): 39.8 µM (≈ 19.7 µg/mL)
CC50 at 4 days [2]: 26800 nM
solubility [3]: > 36.4 mg/mL
pEC50 (HBV): 8.52
